In patent publication US8445497B2, “Compounds for the treatment of hepatitis C” (Bristol-Myers Squibb Company, priority 2010, dated 2013):

Tests used:
[1] = system: genotype 1a or 1b HCV replicon in Huh-7 cells; experiment: HCV replicon luciferase assay; type: cell-based; details: Hepatitis C virus, 72 h; Huh-7 HCV replicon, Renilla luciferase, 3 days; genotype 1a or 1b not stated
Experimental: Cell lines. The cell lines used to evaluate compounds consist of a human hepatocyte derived cell line (Huh-7) that constitutively expresses a genotype 1a or 1b HCV replicon containing a Renilla luciferase reporter gene. These cells were maintained in Dulbecco's modified Eagle medium (DMEM) containing 10% FBS, 100 U/mL penicillin/streptomycin and 1.0 mg/mL G418.
HCV replicon luciferase assay. To evaluate compound efficacy, HCV replicon cells were seeded in 96-well plates in DMEM containing 10% FBS at a cell density of 10^4/well. Following incubation at 37° C. overnight, compounds serially diluted in DMSO were added to the cell plates. Alternatively, titrated compounds were transferred to sterile 384-well tissue-culture treated plates and the plates seeded with 50 μL of cells at a density of 2.4×10^3 cells/well in DMEM containing 4% FCS (final DMSO concentration at 0.5%). After 3 days incubation at 37° C., cells were analyzed for Renilla Luciferase activity using the EnduRen substrate (Promega cat #E6485) according to the manufacturer's directions. Briefly, the EnduRen substrate was diluted in DMEM and then added to the plates to a final concentration of 7.5 μM. The plates were incubated for at least 1 h at 37° C. then read on a TopCount NXT Microplate Scintillation and Luminescence Counter (Packard) or Viewlux Imager (PerkinElmer) using a luminescence program. […]

HCV NS5B = target: T1, HCV NS5B (Hepatitis C virus genotype 1b, UniProt Q9WMX2); experiment: HCV NS5B RdRp enzyme assay; type: biochemical; details: HCV NS5B RdRp genotype 1b
T1 construct: The protein was expressed with an 18 amino acid C-terminal truncation to enhance the solubility; made in house; host or cells: E. coli BL21(DE3)
T1 sequence (Q9WMX2 2420-2992): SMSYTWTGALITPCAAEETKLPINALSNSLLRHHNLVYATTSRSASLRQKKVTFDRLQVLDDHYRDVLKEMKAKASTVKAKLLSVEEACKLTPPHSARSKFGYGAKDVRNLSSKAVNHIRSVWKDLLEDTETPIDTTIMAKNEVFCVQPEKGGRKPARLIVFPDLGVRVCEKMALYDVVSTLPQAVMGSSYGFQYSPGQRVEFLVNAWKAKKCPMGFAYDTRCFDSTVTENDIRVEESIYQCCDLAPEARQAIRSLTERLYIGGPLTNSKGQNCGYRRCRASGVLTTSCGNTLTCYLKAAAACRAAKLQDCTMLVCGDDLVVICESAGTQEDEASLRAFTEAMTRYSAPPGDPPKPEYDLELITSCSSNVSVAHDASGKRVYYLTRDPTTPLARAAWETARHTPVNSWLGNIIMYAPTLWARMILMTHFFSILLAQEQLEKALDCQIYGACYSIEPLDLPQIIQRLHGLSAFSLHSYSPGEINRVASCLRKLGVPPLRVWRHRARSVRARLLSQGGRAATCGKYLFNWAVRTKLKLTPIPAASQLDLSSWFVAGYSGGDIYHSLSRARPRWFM
Experimental: HCV NS5B RdRp cloning, expression, and purification. The cDNA encoding the NS5B protein of HCV, genotype 1b, was cloned into the pET21a expression vector. The protein was expressed with an 18 amino acid C-terminal truncation to enhance the solubility. The E. coli competent cell line BL21(DE3) was used for expression of the protein. Cultures were grown at 37° C. for ˜4 hours until the cultures reached an optical density of 2.0 at 600 nm. The cultures were cooled to 20° C. and induced with 1 mM IPTG. Fresh ampicillin was added to a final concentration of 50 μg/mL and the cells were grown overnight at 20° C.
Cell pellets (3 L) were lysed for purification to yield 15-24 mgs of purified NS5B. The lysis buffer consisted of 20 mM Tris-HCl, pH 7.4, 500 mM NaCl, 0.5% triton X-100, 1 mM DTT, 1 mM EDTA, 20% glycerol, 0.5 mg/ml lysozyme, 10 mM MgCl2, 15 ug/ml deoxyribonuclease I, and Complete TM protease inhibitor tablets (Roche). After addition of the lysis buffer, frozen cell pellets were resuspended using a tissue homogenizer. To reduce the viscosity of the sample, aliquots of the lysate were sonicated on ice using a microtip attached to a Branson sonicator. […]
Standard HCV NS5B RdRp enzyme assay. […] Plates were read on a Packard Top Count NXT after >1 hr incubation at room temperature. […]

[2] = extended dosing of the combination regimens with interferon and ribavirin; cited from earlier work
HCV [3] = details: single agent: transient decrease then rebound; more robust drop with interferon and ribavirin; cited from earlier work
HCV [4] = details: combination therapy, Poynard et al. 1998; cited from earlier work

`CNC(=O)c1c(-c2ccc(Oc3ccc(F)cc3)cc2)oc2ccc(-c3cc(C(=O)NC4(c5ncccn5)CC4)c(OC)cc3C)c(F)c12` [4-Fluoro-2-(4-(4-fluorophenoxy)phenyl)-5-(4-methoxy-2-methyl-5-(1-(pyrimidin-2-yl)cyclopropylcarbamoyl)phenyl)-N-methylbenzofuran-3-carboxamide] gave an EC50 [1] of 5 µM and an IC50 (HCV NS5B) of 24 µM.

For `CNC(=O)c1c(-c2ccc(F)cc2)oc2cc(N(CCO)S(C)(=O)=O)c(C3CC3)cc12` [HCV-796], the hepatic toxicity [2] is listed as “hepatic toxicity observed” and the “HCV RNA levels in patients” value (HCV [3]) is listed as “showed an ability to reduce HCV RNA levels in patients”.

In the case of alpha-interferon and ribavirin, the “sustained efficacy, share of patients” value (HCV [4]) is listed as 40%.
